Test results as given in patent publication US20240209053A1 (Protagonist Therapeutics, Inc., priority 2021, published 2024).
pEC50, pIC50: −log10 of the molar value.

Columns and labels:
ferroportin = molecular target: T1, ferroportin (Homo sapiens, UniProt Q9NP59); assay: T47D cell-based ferroportin internalization assay in presence of 0.5% mouse serum albumin (MSA); details: T47D cells
T1 sequence (Q9NP59 1-571): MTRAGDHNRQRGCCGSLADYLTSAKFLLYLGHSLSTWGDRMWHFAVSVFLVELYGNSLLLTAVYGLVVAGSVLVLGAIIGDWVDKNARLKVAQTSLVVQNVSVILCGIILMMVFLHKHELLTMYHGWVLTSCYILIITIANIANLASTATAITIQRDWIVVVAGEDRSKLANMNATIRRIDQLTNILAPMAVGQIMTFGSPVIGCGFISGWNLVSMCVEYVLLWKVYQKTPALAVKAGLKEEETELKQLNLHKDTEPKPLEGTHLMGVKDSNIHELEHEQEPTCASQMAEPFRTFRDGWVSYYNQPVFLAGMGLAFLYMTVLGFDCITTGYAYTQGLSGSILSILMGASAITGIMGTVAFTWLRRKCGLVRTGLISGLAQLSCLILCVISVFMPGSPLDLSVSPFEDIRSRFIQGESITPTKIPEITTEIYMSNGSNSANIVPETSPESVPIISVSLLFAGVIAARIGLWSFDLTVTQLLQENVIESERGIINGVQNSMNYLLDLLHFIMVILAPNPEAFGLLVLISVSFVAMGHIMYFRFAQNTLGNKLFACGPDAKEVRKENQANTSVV
Outline: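 T47D cells exposed 1 hr to peptide series (10 points from ~5 μM) premixed 30 min at room temperature with 0.5% mouse serum albumin, then 200 nM AF647-labelled ferroportin-binding peptide for 2 hr. Flow cytometry MFI of live singlets; IC50 by 4-parameter fit.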

[1] = molecular target: T2, human ferroportin (SLC40A1) (Homo sapiens, UniProt Q9NP59); assay: FPN activity assay: internalization/degradation of ferroportin-GFP in stably transfected HEK293 cells (decrease in GFP fluorescence); type: cell-based; details: compound incubated at least 18 hours
T2 sequence (Q9NP59 1-571): T1 sequence (Q9NP59 1-571)
Outline: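 HEK293 cells stably expressing human ferroportin C-terminally fused to GFP were exposed to peptides for at least 18 h, at most 24 h. Internalization/degradation read as loss of GFP fluorescence; EC50 derived. Retro-inverse mini-hepcidin peptides used as control standards.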

[2] = molecular target: T3, ferroportin fused to green fluorescent protein (Mus musculus, UniProt Q9JHI9); details: read-out: EC50 (50% of maximal loss of fluorescence); cells incubated 24 hours; reference preparations of Hep25; cited from earlier work
T3 sequence (Q9JHI9 1-570): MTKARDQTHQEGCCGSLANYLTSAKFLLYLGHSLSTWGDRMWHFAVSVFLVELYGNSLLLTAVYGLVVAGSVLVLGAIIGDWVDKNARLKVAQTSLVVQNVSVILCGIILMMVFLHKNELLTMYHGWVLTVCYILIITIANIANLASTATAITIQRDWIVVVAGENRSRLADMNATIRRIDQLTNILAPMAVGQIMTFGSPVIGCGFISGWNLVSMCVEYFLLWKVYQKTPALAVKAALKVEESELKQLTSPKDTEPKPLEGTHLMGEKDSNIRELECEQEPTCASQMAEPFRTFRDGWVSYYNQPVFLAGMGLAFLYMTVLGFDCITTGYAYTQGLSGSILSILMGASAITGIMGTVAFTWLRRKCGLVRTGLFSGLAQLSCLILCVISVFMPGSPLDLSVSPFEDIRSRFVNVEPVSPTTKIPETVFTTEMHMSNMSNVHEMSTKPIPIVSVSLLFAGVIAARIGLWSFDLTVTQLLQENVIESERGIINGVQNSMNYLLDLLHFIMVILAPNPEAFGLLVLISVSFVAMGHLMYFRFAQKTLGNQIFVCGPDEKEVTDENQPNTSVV

[3] = molecular target: human ferroportin (SLC40A1) fused in frame with GFP, stably expressed on HEK293 cells (human) (UniProt Q9NP59); assay: cell-based or functional assay

Row | Compound | pIC50 (ferroportin) | pIC50 [1] | further results
1 | CCCCCCCCCCCCCCCC(=O)NCCCCCC(=O)NCCCC[C@H](NC(=O)C[C@H](Cc1ccccc1)NC(=O)[C@@H]1CCCC=CCCC[C@@H](NC(=O)CC(C)C)C(=O)N[C@@H]([C@@H](C)O)C(=O)N[C@@H](Cc2c[nH]cn2)C(=O)N[C@@H](C(c2ccccc2)c2ccccc2)C(=O)N2CCC[C@H]2C(=O)N[C@@H](C)C(=O)N[C@@H]([C@@H](C)CC)C(=O)N1)C(=O)N[C@H](CCCCN)C(N)=O [Compd 70] | 8.00 to 9.00 | 7.00 to 8.00 | –
2 | CCCCCCCCCCCCCCCC(=O)NCCCCCC(=O)NCCCC[C@H](NC(=O)C[C@H](Cc1ccccc1)NC(=O)[C@H]1CCCC=CCC[C@@H](NC(=O)CC(C)C)C(=O)N[C@@H]([C@@H](C)O)C(=O)N[C@@H](Cc2c[nH]cn2)C(=O)N[C@@H](C(c2ccccc2)c2ccccc2)C(=O)N2CCC[C@H]2C(=O)N[C@@H](C)C(=O)N[C@@H]([C@@H](C)CC)C(=O)N1)C(=O)N[C@H](CCCCN)C(N)=O [Compd 71] | 6.30 to 7.00 | 6.30 to 7.00 | –
3 | CCCCCCCCCCCCCCCC(=O)NCCCCCC(=O)NCCCC[C@H](NC(=O)C[C@H](Cc1ccccc1)NC(=O)[C@H]1CCC=CCC[C@@H](NC(=O)CC(C)C)C(=O)N[C@@H]([C@@H](C)O)C(=O)N[C@@H](Cc2c[nH]cn2)C(=O)N[C@@H](C(c2ccccc2)c2ccccc2)C(=O)N2CCC[C@H]2C(=O)N[C@@H](C)C(=O)N[C@@H]([C@@H](C)CC)C(=O)N1)C(=O)N[C@H](CCCCN)C(N)=O [Compd 72] | 6.30 to 7.00 | 7.00 to 8.00 | –
4 | CCCCCCCCCCCCCCCC(=O)NCCCCCC(=O)NCCCC[C@H](NC(=O)C[C@H](Cc1ccccc1)NC(=O)[C@H]1CCCC=CCCC[C@@H](NC(=O)CC(C)C)C(=O)N[C@@H]([C@@H](C)O)C(=O)N[C@@H](Cc2c[nH]cn2)C(=O)N[C@@H](C(c2ccccc2)c2ccccc2)C(=O)N2CCC[C@H]2C(=O)N[C@@H](C)C(=O)N[C@@H]([C@@H](C)CC)C(=O)N1)C(=O)N[C@H](CCCCN)C(N)=O [Compd 73] | < 6.30 | 6.30 to 7.00 | –
5 | CCCCCCCCCCCCCCCC(=O)NCCCCCC(=O)NCCCC[C@H](NC(=O)C[C@H](Cc1ccccc1)NC(=O)[C@H]1CCC=CCCC[C@@H](NC(=O)CC(C)C)C(=O)N[C@@H]([C@@H](C)O)C(=O)N[C@@H](Cc2c[nH]cn2)C(=O)N[C@@H](C(c2ccccc2)c2ccccc2)C(=O)N2CCC[C@H]2C(=O)N[C@@H](C)C(=O)N[C@@H]([C@@H](C)CC)C(=O)N1)C(=O)N[C@H](CCCCN)C(N)=O [Compd 74] | < 6.30 | 6.30 to 7.00 | –
6 | CCCCCCCCCCCCCCCC(=O)NCCCCCC(=O)NCCCC[C@H](NC(=O)C[C@H](Cc1ccccc1)NC(=O)[C@H]1CCCC=CCC[C@H](NC(=O)CC(C)C)C(=O)N[C@@H]([C@@H](C)O)C(=O)N[C@@H](Cc2c[nH]cn2)C(=O)N[C@@H](C(c2ccccc2)c2ccccc2)C(=O)N2CCC[C@H]2C(=O)N[C@@H](C)C(=O)N[C@@H]([C@@H](C)CC)C(=O)N1)C(=O)N[C@H](CCCCN)C(N)=O [Compd 75] | 7.00 to 8.00 | 7.00 to 8.00 | –
7 | CCCCCCCCCCCCCCCC(=O)NCCCCCC(=O)NCCCC[C@H](NC(=O)C[C@H](Cc1ccccc1)NC(=O)[C@H]1CCC=CCC[C@H](NC(=O)CC(C)C)C(=O)N[C@@H]([C@@H](C)O)C(=O)N[C@@H](Cc2c[nH]cn2)C(=O)N[C@@H](C(c2ccccc2)c2ccccc2)C(=O)N2CCC[C@H]2C(=O)N[C@@H](C)C(=O)N[C@@H]([C@@H](C)CC)C(=O)N1)C(=O)N[C@H](CCCCN)C(N)=O [Compd 76] | 7.00 to 8.00 | 7.00 to 8.00 | –
8 | CCCCCCCCCCCCCCCC(=O)NCCCCCC(=O)NCCCC[C@H](NC(=O)C[C@H](Cc1ccccc1)NC(=O)[C@H]1CCCC=CCCC[C@H](NC(=O)CC(C)C)C(=O)N[C@@H]([C@@H](C)O)C(=O)N[C@@H](Cc2c[nH]cn2)C(=O)N[C@@H](C(c2ccccc2)c2ccccc2)C(=O)N2CCC[C@H]2C(=O)N[C@@H](C)C(=O)N[C@@H]([C@@H](C)CC)C(=O)N1)C(=O)N[C@H](CCCCN)C(N)=O [Compd 77] | 8.00 to 9.00 | 8.00 to 9.00 | –
9 | CCCCCCCCCCCCCCCC(=O)NCCCCCC(=O)NCCCC[C@H](NC(=O)C[C@H](Cc1ccccc1)NC(=O)[C@H]1CCC=CCCC[C@H](NC(=O)CC(C)C)C(=O)N[C@@H]([C@@H](C)O)C(=O)N[C@@H](Cc2c[nH]cn2)C(=O)N[C@@H](C(c2ccccc2)c2ccccc2)C(=O)N2CCC[C@H]2C(=O)N[C@@H](C)C(=O)N[C@@H]([C@@H](C)CC)C(=O)N1)C(=O)N[C@H](CCCCN)C(N)=O [Compd 78] | 6.30 to 7.00 | 7.00 to 8.00 | –
10 | CC[C@H](C)[C@@H]1NC(=O)[C@@H](NC(=O)[C@@H](NC(=O)[C@@H]2CCCN2C(=O)[C@H](Cc2ccccc2)NC(=O)[C@H](Cc2c[nH]cn2)NC(=O)[C@@H](NC(=O)[C@@H](N)CC(=O)O)[C@@H](C)O)[C@@H](C)CC)CSSC[C@@H](C(=O)N[C@@H](CCCCN)C(=O)N[C@H](C(=O)O)[C@@H](C)O)NC(=O)[C@@H]2CSSC[C@@H]3NC(=O)[C@@H]4CSSC[C@H](NC(=O)[C@H](Cc5ccccc5)NC1=O)C(=O)N[C@@H](CSSC[C@H](NC(=O)[C@H](CCCCN)NC(=O)[C@H](CO)NC(=O)[C@H](CCCNC(=N)N)NC(=O)[C@H](Cc1c[nH]cn1)NC3=O)C(=O)NCC(=O)N[C@@H](CCSC)C(=O)N2)C(=O)NCC(=O)N4 [Hepcidin, Hy-DTHFPIC(1)IFC(2)C(3)GC(2)C(4)HRSKC(3)GMC(4)C(1)KT-OH] | – | – | pEC50 [2]: 7.82 to 8.30
11 | CCCCCCCCCCCCCCCC(=O)NCCCCCC(=O)NCCCC[C@H](NC(=O)C[C@H](Cc1ccccc1)NC(=O)[C@@H]1CCC=CCC[C@H](NC(=O)CC(C)C)C(=O)N[C@@H]([C@@H](C)O)C(=O)N[C@@H](Cc2c[nH]cn2)C(=O)N[C@@H](C(c2ccccc2)c2ccccc2)C(=O)N2CCC[C@H]2C(=O)N[C@@H](C)C(=O)N[C@@H]([C@@H](C)CC)C(=O)N1)C(=O)N[C@H](CCCCN)C(N)=O [Peptide ID #16, Isovaleric Acid-[Ala(2)]-T-H-[Dpa]-P-A-I-[Ala(2)]-[bhPhe]-[Lys(Ahx_Palm)]-[(D)Lys]-NH2] | 7.00 to 8.00 | 8.00 to 9.00 | –
12 | Hepcidin (ligand) | – | – | Potency EC50 [3]: 34 nM
13 | Mini-Hepcidin 1-9 (peptide) | – | – | Potency EC50 [3]: 712 nM
14 | RI-Mini Hepcidin (peptide) | – | – | Potency EC50 (nM) [3]: > 10000 nM
